In PubChem BioAssay (NCI):
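Values below derive from 48-hour exposures of cells grown in 96-well plates, with endpoints linearly interpolated between the two concentrations bracketing the appropriate inhibition level. TGI is the concentration that stops growth completely.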

How the values were obtained:
Test in all cases: inhibition of tumour cell growth, NCI panel, 48 h
HCT-15 colon = system: HCT-15 colon
HL-60(TB) leukemia = system: HL-60(TB) leukemia
HOP-62 NSCLC = system: HOP-62 NSCLC
HOP-92 NSCLC = system: HOP-92 NSCLC
HT29 colon = system: HT29 colon
K-562 leukemia = system: K-562 leukemia
M14 melanoma = system: M14 melanoma
MALME-3M melanoma = system: MALME-3M melanoma
NCI-H226 lung = system: NCI-H226 lung
SK-MEL-2 melanoma = system: SK-MEL-2 melanoma
SK-OV-3 ovarian = system: SK-OV-3 ovarian
UO-31 renal = system: UO-31 renal

Row | SMILES | TGI (HCT-15 colon) [µM] | TGI (HL-60(TB) leukemia) [µM] | TGI (HOP-62 NSCLC) [µM] | TGI (HOP-92 NSCLC) [µM] | TGI (HT29 colon) [µM] | TGI (K-562 leukemia) [µM] | TGI (M14 melanoma) [µM] | TGI (MALME-3M melanoma) [µM] | TGI (NCI-H226 lung) [µM] | TGI (SK-MEL-2 melanoma) [µM] | TGI (SK-OV-3 ovarian) [µM] | TGI (UO-31 renal) [µM]
1 | COC(=O)[C@H](Cc1ccccc1)NC(=O)c1ccc(CNC(=O)/C=C/c2ccc(OCc3ccccc3)cc2)cc1 | > 100 | 11.8 | 26.3 | 9.43 | > 58 | > 100 | 7.38 | 11.5 | 49.8 | 7.92 | 59.9 | 29.5
2 | CCOC(=O)c1c(N)sc2c1CC(C)CC2 (stereo unspecified) | > 100 | 23.2 | > 100 | 74.2 | 50.3 | > 100 | > 100 | > 100 | 64 | > 100 | > 100 | > 100
3 | NS(=O)(=O)c1ccc(NC(=O)N/N=C/c2ccccc2[N+](=O)[O-])cc1 | > 100 | > 100 | > 100 | > 100 | > 100 | > 100 | 85.3 | > 100 | > 100 | > 100 | > 100 | > 100
4 | COC(=O)C1=C(C)NC(=O)N2[C@@H](CCOCc3ccccc3)CC[C@@H]12 | > 50 | > 50 | > 50 | > 50 | > 50 | > 50 | > 50 | > 50 | > 50 | > 50 | > 50 | > 50
5 | COc1ccc(C2CC(c3c(O)ccc4ccccc34)=NN2)cc1OC (stereo unspecified) | 18.6 | 63.5 | 17.5 | 24.7 | 4.98 | > 100 | 17.3 | 16.3 | 14.6 | 30.9 | 28.8 | 5.7
6 | CC(NC1=NCCO1)c1ccccc1Cl (stereo unspecified) | > 100 | > 100 | > 100 | 73 | > 100 | > 100 | > 100 | > 100 | > 100 | > 100 | > 100 | > 100
7 | CCCCSC1=N/C(=C\c2ccccc2O)C(=O)N1 | > 100 | > 100 | > 100 | > 100 | > 100 | > 100 | > 100 | > 100 | > 100 | > 100 | > 100 | > 100
8 | C#C[C@]1(O)CC[C@H]2[C@@H]3CCC4=C/C(=N\OCCN5CCCCC5)CC[C@]4(C)[C@H]3CC[C@@]21C | 23 | 6.23 | 24.4 | 50.8 | 22.4 | 8.27 | 10.2 | 21.6 | 39.5 | 8.76 | 31.2 | 16
9 | S=C(NCc1ccccc1)Nc1sc(=NCc2ccccc2)nc2sc3c(c12)CCN(N1CCc2c(sc4nc(=NCc5ccccc5)sc(NC(=S)NCc5ccccc5)c24)C1)C3 | > 66.7 | 42.4 | > 100 | > 100 | 43.3 | > 100 | > 65.4 | > 100 | 99.7 | > 81.8 | 99.6 | > 60.8
10 | COc1ccc(S(=O)(=O)Nc2ccc(-c3csc(N4C(=O)/C(=C/c5ccccc5[N+](=O)[O-])N=C4c4ccccc4)n3)cc2)cc1Cl | 81.2 | > 100 | > 100 | 87.5 | > 100 | > 100 | > 100 | > 100 | > 100 | > 100 | > 100 | 73.8
11 | CC(C)(C)C1=C(Br)C(F)(C(C)(C)C)OP1(=O)c1ccccc1 (stereo unspecified) | 36.9 | 16.2 | 30 | 34.2 | 35 | 22.9 | 28.5 | 32 | 31 | 36.5 | 32.2 | 59.4
12 | CCOC(=O)c1c(O)cn2c1[nH]c1cccc3cccc2c31 | > 100 | > 100 | > 100 | > 100 | > 100 | > 100 | > 100 | > 100 | > 100 | > 100 | > 100 | > 100
13 | CN(C)Cc1cc(Cl)c(O)c(CN(C)C)c1 | > 100 | > 100 | > 100 | > 100 | > 100 | > 100 | > 100 | > 100 | > 100 | > 100 | > 100 | > 100
14 | Cc1ncn(-c2ccccc2O)c1C | > 100 | > 100 | > 100 | > 100 | > 100 | > 100 | > 100 | > 100 | > 100 | > 100 | > 100 | > 100
15 | NC1=Nc2ccccc2Sc2nncn21 | > 100 | > 100 | > 100 | > 100 | > 100 | > 100 | > 100 | > 100 | > 100 | > 100 | > 100 | > 100
16 | CCOC(=O)C(NC(=O)c1cccc(Cl)c1)(Nc1ccc(S(=O)(=O)Nc2cc(C)on2)cc1)C(F)(F)F (stereo unspecified) | > 100 | > 100 | > 100 | > 100 | > 100 | > 100 | > 100 | > 100 | > 100 | > 100 | > 100 | > 100
17 | Cc1ccc(S(=O)(=O)n2cc(C=O)c(-c3cn(S(=O)(=O)c4ccc(C)cc4)cc3-c3cn(S(=O)(=O)c4ccc(C)cc4)cc3C=O)c2)cc1 | > 100 | > 100 | > 100 | > 100 | > 100 | > 100 | > 100 | > 100 | > 100 | > 100 | > 100 | > 100
18 | COC(=O)Nc1nc2ccc(NS(=O)(=O)c3cccs3)cc2[nH]1 | > 100 | 55.5 | 82.4 | 70.4 | > 100 | > 100 | 76 | 54.7 | > 100 | > 100 | 90.6 | > 100
19 | O=C(Nc1ccccc1)N(CCN(Cc1ccccc1)C(=O)Nc1ccccc1)CCN(Nc1ccccc1)C(=O)Nc1ccccc1 | > 100 | > 100 | > 100 | > 100 | > 100 | > 100 | > 100 | > 100 | > 100 | > 100 | > 100 | > 100
20 | CO/C=C(/C(=O)OC)[C@@H]1C[C@@H]1c1ccc2ccccc2c1 | 49.9 | 49.3 | > 100 | 72.9 | 48.6 | > 100 | 71.9 | 50.6 | > 100 | 35.1 | 59.4 | > 100
21 | Cc1nc(-c2ccccc2)cn2c1nc1ccccc12 | > 68.5 | > 100 | 49.6 | 62.6 | > 56.4 | > 100 | > 82.8 | 48.9 | 41.1 | 43.5 | 26 | 46.5
22 | O=C(O)c1nc2cc(Cl)ccc2[nH]c1=O | > 100 | > 100 | > 100 | > 100 | > 100 | > 100 | > 100 | > 100 | > 100 | > 100 | > 100 | > 100
23 | Cn1c(-c2ccco2)ccc1-c1ccc(C=O)o1 | > 100 | 52.2 | > 100 | > 100 | > 100 | > 100 | > 100 | > 100 | > 100 | > 100 | > 100 | > 100
